# Experimental data reported in patent US20180289678A1, “PHARMACEUTICAL COMPOSITION, PHARMACEUTICAL DOSAGE FORM, PROCESS FOR THEIR PREPARATION, METHODS FOR TREATING AND USES THEREOF” (Boehringer Ingelheim International GmbH, priority 2009, published 2018).
# Where two headings read alike, the source gives them in different places.
# Assays:
# [1] = system: Zucker Diabetic Fatty (ZDF) rats; test: Oral glucose tolerance test in ZDF rats; format: in vivo, rat; details: oral glucose load
# Protocol: According to a first example an oral glucose tolerance test is performed in overnight fasted 9-weeks old male Zucker Diabetic Fatty (ZDF) rats (ZDF/Crl-Lepr^fa). A pre-dose blood sample is obtained by tail bleed. Blood glucose is measured with a glucometer, and the animals are randomized for blood glucose (n=5/group). Subsequently, the groups receive a single oral administration of either vehicle alone (0.5% aqueous hydroxyethylcellulose containing 3 mM HCl and 0.015% Polysorbat 80) or vehicle containing the SGLT2 inhibitor. The animals receive an oral glucose load (2 g/kg) 30 min after compound administration. Blood glucose is measured in tail blood 30 min, 60 min, 90 min, 120 min, and 180 min after the glucose challenge. Glucose excursion is quantified by calculating the reactive glucose AUC. The data are presented as mean ±SEM. The two-sided unpaired Student t-test is used for statistical comparison of the control group and the active groups.
# Compound (I.9) (1-chloro-4-(β-D-glucopyranos-1-yl)-2-[4-((S)-tetrahydrofuran-3-yloxy)-benzyl]-benzene) was orally administered to ZDF rats at doses of 0.3 mg/kg, 3 mg/kg or 30 mg/kg body weight. Compound (I.9) reduced glucose excursion by 15% at 0.3 mg/kg (not significant), by 62% at 3 mg/kg (p<0.001) and by 89% at 30 mg/kg (p<0.001).
# [2] = Study .1: single dose study in healthy volunteers, pharmacokinetic parameters; format: in vivo, human; details: Study .1, fasted
# Protocol: 5. Pharmacokinetic Parameters
# The pharmacokinetic parameters of pharmaceutical compositions and pharmaceutical dosage forms are assessed in healthy volunteer and patient populations. In the studies shown below, the participants fasted on the day of sampling, unless as otherwise stated (see for example study .3). The active substance in the studies below is the compound (I.9), preferably in the crystalline form (I.9X), and the dose of active ingredient is indicated in mg.
# For the quantification of plasma concentrations of the active ingredient, 2.7 mL of blood was collected and transferred into an EDTA (ethylendiaminetetraacetic acid)-anticoagulant blood drawing tube. The EDTA-anticoagulated blood samples were centrifuged immediately after collection. Centrifugation lasted for about 10 minutes (at about 2,000×gf to 4,000×gf) at 4-8° C. or within 30 minutes while stored on ice. Concentrations of active substance in EDTA human plasma samples were quantitated using a HPLC/MS/MS method. The assay method comprised a solid phase supported liquid-liquid extraction of human plasma coupled with HPLC/MS/MS determination of the extracted samples. The HPLC/MS/MS assay was validated for the range of 1.11 to 1110 nM in human plasma.
# Study .1: Single dose study in a healthy volunteer population of N=72. Healthy volunteers were administered tablets as described in Example 10 (section Examples of formulations).
# AUC0-inf:area under the concentration-time curve of the analyte in plasma over the time interval from 0 extrapolated to infinity.
# Cmax: maximum concentration of the analyte in plasma.
# Tmax: time from dosing to maximum concentration.
smiles,measurement,setting,value
"OC[C@H]1O[C@@H](c2ccc(Cl)c(Cc3ccc(O[C@H]4CCOC4)cc3)c2)[C@H](O)[C@@H](O)[C@@H]1O [Compound (I.9), 1-chloro-4-(β-D-glucopyranos-1-yl)-2-[4-((S)-tetrahydrofuran-3-yloxy)-benzyl]-benzene]",reduced glucose excursion (baseline-corrected glucose AUC),"[1]; 0.3 mg/kg oral, not significant",15%
same,reduced glucose excursion (baseline-corrected glucose AUC),"[1]; 3 mg/kg oral, p<0.001",62%
same,reduced glucose excursion (baseline-corrected glucose AUC),"[1]; 30 mg/kg oral, p<0.001",89%
same,AUC0-inf Max,[2]; 2.5 mg single dose,0.448 µM·h
same,AUC0-inf Min,[2]; 2.5 mg single dose,0.336 µM·h
same,"AUC0-inf,norm Max",[2]; 2.5 mg single dose,179 nmol·h/L/mg
same,"AUC0-inf,norm Median",[2]; 2.5 mg single dose,159 nmol·h/L/mg
same,"AUC0-inf,norm Min",[2]; 2.5 mg single dose,134 nmol·h/L/mg
same,"AUC0-inf,norm gMean",[2]; 2.5 mg single dose,158 nmol·h/L/mg
same,"Cmax,norm Max",[2]; 2.5 mg single dose,24 nmol/L/mg
same,"Cmax,norm Median",[2]; 2.5 mg single dose,22 nmol/L/mg
same,"Cmax,norm Min",[2]; 2.5 mg single dose,17 nmol/L/mg
same,"Cmax,norm gMean",[2]; 2.5 mg single dose,21 nmol/L/mg
same,tmax Max,[2]; 2.5 mg single dose,2.98 h
same,tmax Min,[2]; 2.5 mg single dose,0.983 h
same,Cmax,"[2]; 2.5 mg single dose, read-out: Cmax Max",60.8 nM
same,Cmax,"[2]; 2.5 mg single dose, read-out: Cmax Min",42.8 nM
same,AUC0-inf Max,[2]; 10 mg single dose,2.18 µM·h
same,AUC0-inf Min,[2]; 10 mg single dose,1.17 µM·h
same,"AUC0-inf,norm Max",[2]; 10 mg single dose,218 nmol·h/L/mg
same,"AUC0-inf,norm Median",[2]; 10 mg single dose,178 nmol·h/L/mg
same,"AUC0-inf,norm Min",[2]; 10 mg single dose,117 nmol·h/L/mg
same,"AUC0-inf,norm gMean",[2]; 10 mg single dose,169 nmol·h/L/mg
same,"Cmax,norm Max",[2]; 10 mg single dose,27 nmol/L/mg
same,"Cmax,norm Median",[2]; 10 mg single dose,24 nmol/L/mg
same,"Cmax,norm Min",[2]; 10 mg single dose,14 nmol/L/mg
same,"Cmax,norm gMean",[2]; 10 mg single dose,22 nmol/L/mg
same,tmax Max,[2]; 10 mg single dose,2.03 h
same,tmax Min,[2]; 10 mg single dose,0.983 h
same,Cmax,"[2]; 10 mg single dose, read-out: Cmax Max",268 nM
same,Cmax,"[2]; 10 mg single dose, read-out: Cmax Min",143 nM
same,AUC0-inf Max,[2]; 25 mg single dose,4.91 µM·h
same,AUC0-inf Min,[2]; 25 mg single dose,2.66 µM·h
same,"AUC0-inf,norm Max",[2]; 25 mg single dose,196 nmol·h/L/mg
same,"AUC0-inf,norm Median",[2]; 25 mg single dose,159 nmol·h/L/mg
same,"AUC0-inf,norm Min",[2]; 25 mg single dose,106 nmol·h/L/mg
same,"AUC0-inf,norm gMean",[2]; 25 mg single dose,150 nmol·h/L/mg
same,"Cmax,norm Max",[2]; 25 mg single dose,27 nmol/L/mg
same,"Cmax,norm Median",[2]; 25 mg single dose,21 nmol/L/mg
same,"Cmax,norm Min",[2]; 25 mg single dose,13 nmol/L/mg
same,"Cmax,norm gMean",[2]; 25 mg single dose,20 nmol/L/mg
same,tmax Max,[2]; 25 mg single dose,3.02 h
same,tmax Min,[2]; 25 mg single dose,1.00 h
same,Cmax,"[2]; 25 mg single dose, read-out: Cmax Max",678 nM
same,Cmax,"[2]; 25 mg single dose, read-out: Cmax Min",334 nM
same,AUC0-inf Max,[2]; 50 mg single dose,11.5 µM·h
same,AUC0-inf Min,[2]; 50 mg single dose,7.27 µM·h
same,"AUC0-inf,norm Max",[2]; 50 mg single dose,230 nmol·h/L/mg
same,"AUC0-inf,norm Median",[2]; 50 mg single dose,166 nmol·h/L/mg
same,"AUC0-inf,norm Min",[2]; 50 mg single dose,145 nmol·h/L/mg
same,"AUC0-inf,norm gMean",[2]; 50 mg single dose,169 nmol·h/L/mg
same,"Cmax,norm Max",[2]; 50 mg single dose,29 nmol/L/mg
same,"Cmax,norm Median",[2]; 50 mg single dose,22 nmol/L/mg
same,"Cmax,norm Min",[2]; 50 mg single dose,14 nmol/L/mg
same,"Cmax,norm gMean",[2]; 50 mg single dose,22 nmol/L/mg
same,tmax Max,[2]; 50 mg single dose,3.00 h
same,tmax Min,[2]; 50 mg single dose,0.750 h
same,Cmax,"[2]; 50 mg single dose, read-out: Cmax Max",1450 nM
same,AUC(0-inf),"[2]; human, plasma, oral, 2.5 mg, 2.5 mg single dose, read-out: AUC0-inf Mean",0.396 µM·h
same,AUC(0-inf),"[2]; human, plasma, oral, 2.5 mg, 2.5 mg single dose, read-out: AUC0-inf Median",0.398 µM·h
same,AUC(0-inf),"[2]; human, plasma, oral, 2.5 mg, 2.5 mg single dose, read-out: AUC0-inf gMean",0.394 µM·h
same,Cmax,"[2]; human, plasma, oral, 2.5 mg, 2.5 mg single dose, read-out: Cmax Mean",53.2 nM
same,Cmax,"[2]; human, plasma, oral, 2.5 mg, 2.5 mg single dose, read-out: Cmax Median",55 nM
same,Cmax,"[2]; human, plasma, oral, 2.5 mg, 2.5 mg single dose, read-out: Cmax gMean",52.9 nM
same,Tmax,"[2]; human, plasma, oral, 2.5 mg, 2.5 mg single dose, read-out: tmax Mean",1.83 h
same,Tmax,"[2]; human, plasma, oral, 2.5 mg, 2.5 mg single dose, read-out: tmax Median",1.75 h
same,Tmax,"[2]; human, plasma, oral, 2.5 mg, 2.5 mg single dose, read-out: tmax gMean",1.72 h
same,AUC(0-inf),"[2]; human, plasma, oral, 10 mg, 10 mg single dose, read-out: AUC0-inf Mean",1.73 µM·h
same,AUC(0-inf),"[2]; human, plasma, oral, 10 mg, 10 mg single dose, read-out: AUC0-inf Median",1.78 µM·h
same,AUC(0-inf),"[2]; human, plasma, oral, 10 mg, 10 mg single dose, read-out: AUC0-inf gMean",1.69 µM·h
same,Cmax,"[2]; human, plasma, oral, 10 mg, 10 mg single dose, read-out: Cmax Mean",226 nM
same,Cmax,"[2]; human, plasma, oral, 10 mg, 10 mg single dose, read-out: Cmax Median",239 nM
same,Cmax,"[2]; human, plasma, oral, 10 mg, 10 mg single dose, read-out: Cmax gMean",221 nM
same,Tmax,"[2]; human, plasma, oral, 10 mg, 10 mg single dose, read-out: tmax Mean",1.42 h
same,Tmax,"[2]; human, plasma, oral, 10 mg, 10 mg single dose, read-out: tmax Median",1.5 h
same,Tmax,"[2]; human, plasma, oral, 10 mg, 10 mg single dose, read-out: tmax gMean",1.38 h
same,AUC(0-inf),"[2]; human, plasma, oral, 25 mg, 25 mg single dose, read-out: AUC0-inf Mean",3.83 µM·h
same,AUC(0-inf),"[2]; human, plasma, oral, 25 mg, 25 mg single dose, read-out: AUC0-inf Median",3.98 µM·h
same,AUC(0-inf),"[2]; human, plasma, oral, 25 mg, 25 mg single dose, read-out: AUC0-inf gMean",3.75 µM·h
same,Cmax,"[2]; human, plasma, oral, 25 mg, 25 mg single dose, read-out: Cmax Mean",505 nM
same,Cmax,"[2]; human, plasma, oral, 25 mg, 25 mg single dose, read-out: Cmax Median",520 nM
same,Cmax,"[2]; human, plasma, oral, 25 mg, 25 mg single dose, read-out: Cmax gMean",490 nM
same,Tmax,"[2]; human, plasma, oral, 25 mg, 25 mg single dose, read-out: tmax Mean",2.19 h
same,Tmax,"[2]; human, plasma, oral, 25 mg, 25 mg single dose, read-out: tmax Median",2.05 h
same,Tmax,"[2]; human, plasma, oral, 25 mg, 25 mg single dose, read-out: tmax gMean",2.06 h
same,AUC(0-inf),"[2]; human, plasma, oral, 50 mg, 50 mg single dose, read-out: AUC0-inf Mean",8.58 µM·h
same,AUC(0-inf),"[2]; human, plasma, oral, 50 mg, 50 mg single dose, read-out: AUC0-inf Median",8.29 µM·h
same,AUC(0-inf),"[2]; human, plasma, oral, 50 mg, 50 mg single dose, read-out: AUC0-inf gMean",8.46 µM·h
same,Cmax,"[2]; human, plasma, oral, 50 mg, 50 mg single dose, read-out: Cmax Mean",1110 nM
same,Cmax,"[2]; human, plasma, oral, 50 mg, 50 mg single dose, read-out: Cmax Median",1100 nM
same,Cmax,"[2]; human, plasma, oral, 50 mg, 50 mg single dose, read-out: Cmax gMean",1080 nM
same,Tmax,"[2]; human, plasma, oral, 50 mg, 50 mg single dose, read-out: tmax Mean",1.75 h
same,Tmax,"[2]; human, plasma, oral, 50 mg, 50 mg single dose, read-out: tmax Median",1.5 h
same,Tmax,"[2]; human, plasma, oral, 50 mg, 50 mg single dose, read-out: tmax gMean",1.59 h
